According to ChEMBL document CHEMBL1201862, “PubChem BioAssay data set” (2004):
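All cell lines were grown in 96-well plates and treated with compound for 48 hours. Here, GI50 denotes the concentration required for 50% inhibition of growth.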 Calls of active or inactive are those of the source. Rule as the data show it: active = GI50 up to about 1.1 µM and inactive = higher.

What was measured:
Assay in all cases: NCI-60 cell line screen, 48 h
HCT-15 = tested on: HCT-15
IGROV-1 = tested on: IGROV-1
HOP-62 = tested on: HOP-62
SK-MEL-5 = tested on: SK-MEL-5
SNB-75 = tested on: SNB-75
SW-620 = tested on: SW-620
RPMI-8226 = tested on: RPMI-8226
OVCAR-3 = tested on: OVCAR-3
MDA-MB-231 = tested on: MDA-MB-231
T47D = tested on: T47D
NCI/ADR-RES = tested on: NCI/ADR-RES
HT-29 = tested on: HT-29
SR = tested on: SR
DU-145 = tested on: DU-145
HCT-116 = tested on: HCT-116
OVCAR-8 = tested on: OVCAR-8
HL-60 = tested on: HL-60

Row | SMILES | GI50 (HCT-15) | GI50 (IGROV-1) | GI50 (HOP-62) | GI50 (SK-MEL-5) | GI50 (SNB-75) | GI50 (SW-620) | GI50 (RPMI-8226) | GI50 (OVCAR-3) | GI50 (MDA-MB-231) | GI50 (T47D) | GI50 (NCI/ADR-RES) | GI50 (HT-29) | GI50 (SR) | GI50 (DU-145) | GI50 (HCT-116) | GI50 (OVCAR-8) | GI50 (HL-60)
1 | Cc1ccc(SCN2CCCCC2)cc1.O=C(Cl)c1ccc([N+](=O)[O-])cc1 | 9.77 µM | 3.3 µM (inactive) | 16.2 µM (inactive) | 2.78 µM (inactive) | 9.42 µM (inactive) | 18.5 µM (inactive) | 5.78 µM (inactive) | 12.9 µM (inactive) | 13.2 µM (inactive) | 12.2 µM (inactive) | 14 µM (inactive) | 13.2 µM (inactive) | 4.24 µM (inactive) | 13.7 µM (inactive) | 10.9 µM (inactive) | 25.9 µM (inactive) | 1.67 µM (inactive)
2 | Oc1c(CN2CCOCC2)ccc(CN2CCOCC2)c1O | 34 µM | 70.5 µM (inactive) | 42.3 µM (inactive) | 25.5 µM (inactive) | 15.1 µM (inactive) | 83.6 µM (inactive) | 50.1 µM (inactive) | 21.2 µM (inactive) | > 100 µM (inactive) | 39.7 µM (inactive) | 30.1 µM (inactive) | 52.1 µM (inactive) | 24.5 µM (inactive) | 26.6 µM (inactive) | 38 µM (inactive) | 47.2 µM (inactive) | 3.8 µM (inactive)
3 | O=C(O)c1cscc1Cc1cccs1 | > 100 µM | > 100 µM (inactive) | > 100 µM (inactive) | > 100 µM (inactive) | 57.8 µM (inactive) | > 100 µM (inactive) | > 100 µM (inactive) | > 100 µM (inactive) | > 100 µM (inactive) | > 100 µM (inactive) | > 100 µM (inactive) | > 100 µM (inactive) | > 100 µM (inactive) | > 100 µM (inactive) | > 100 µM (inactive) | > 100 µM (inactive) | > 100 µM (inactive)
4 | OCCCNCc1ccncc1 | > 100 µM | > 100 µM (inactive) | > 100 µM (inactive) | > 100 µM (inactive) | > 100 µM (inactive) | > 100 µM (inactive) | > 100 µM (inactive) | > 100 µM (inactive) | > 100 µM (inactive) | > 100 µM (inactive) | > 100 µM (inactive) | > 100 µM (inactive) | > 100 µM (inactive) | > 100 µM (inactive) | > 100 µM (inactive) | > 100 µM (inactive) | > 100 µM (inactive)
5 | COc1cc(C2C3=C(COC3=O)Oc3cc4c(cc32)OCO4)ccc1O (centres undefined) | 0.476 µM | 0.509 µM (active) | 0.394 µM (active) | 0.0728 µM (active) | 0.225 µM (active) | 0.329 µM (active) | 0.372 µM (active) | 0.189 µM (active) | 0.818 µM (active) | 0.49 µM (active) | 0.242 µM (active) | 0.359 µM (active) | 0.252 µM (active) | 0.514 µM (active) | 0.448 µM (active) | 0.69 µM (active) | 0.182 µM (active)
6 | Cc1ccc(N(C)S(=O)(=O)c2ccccc2)cc1 | > 100 µM | > 100 µM (inactive) | > 100 µM (inactive) | 67.5 µM (inactive) | > 100 µM (inactive) | > 100 µM (inactive) | 59.8 µM (inactive) | > 100 µM (inactive) | 88.3 µM (inactive) | 47.9 µM (inactive) | > 100 µM (inactive) | > 100 µM (inactive) | 84.7 µM (inactive) | > 100 µM (inactive) | 86.5 µM (inactive) | > 100 µM (inactive) | > 10 µM (inactive)
7 | NC(=S)Nc1nc(=S)[nH]c2c1SC1=N/C(=C\c3ccco3)C(=O)N12 | 48.8 µM | 45.2 µM (inactive) | > 100 µM (inactive) | > 82.8 µM (inactive) | > 57.1 µM (inactive) | > 100 µM (inactive) | 29.3 µM (inactive) | > 89.7 µM (inactive) | > 100 µM (inactive) | 61.8 µM (inactive) | > 100 µM (inactive) | > 60.4 µM (inactive) | 21.1 µM (inactive) | > 100 µM (inactive) | > 96.2 µM (inactive) | > 100 µM (inactive) | 19.1 µM (inactive)
8 | C=C1CC2(C[C@@H](c3ccccc3)O[C@@H](c3ccccc3)C2)OC1=O (some centres undefined) | 2.54 µM | 2.71 µM (inactive) | 14.4 µM (inactive) | 3.01 µM (inactive) | 4.65 µM (inactive) | 1.67 µM (inactive) | 0.341 µM (active) | 2.36 µM (inactive) | 2.15 µM (inactive) | 1.85 µM (inactive) | 3.06 µM (inactive) | 2.92 µM (inactive) | 2.3 µM (inactive) | 9.12 µM (inactive) | 1.9 µM (inactive) | 2.49 µM (inactive) | 0.44 µM (active)
9 | N/C(=N\Nc1cccc(Cl)c1)c1cccnc1 | 39.6 µM | 70.6 µM (inactive) | > 100 µM (inactive) | 32.9 µM (inactive) | 29.7 µM (inactive) | 54.2 µM (inactive) | 14.7 µM (inactive) | 13.5 µM (inactive) | 81.1 µM (inactive) | 18.9 µM (inactive) | 38.7 µM (inactive) | 27.2 µM (inactive) | 26 µM (inactive) | 82.2 µM (inactive) | 29.9 µM (inactive) | > 78.3 µM (inactive) | 4.28 µM (inactive)
10 | O=C1OC[C@H]2[C@@H]1[C@H]1O[C@@H]2C2=C(CCC2)C1=O | > 100 µM | > 100 µM (inactive) | > 100 µM (inactive) | > 100 µM (inactive) | > 100 µM (inactive) | > 100 µM (inactive) | > 100 µM (inactive) | > 100 µM (inactive) | > 100 µM (inactive) | > 100 µM (inactive) | > 100 µM (inactive) | > 100 µM (inactive) | > 100 µM (inactive) | > 100 µM (inactive) | > 100 µM (inactive) | > 100 µM (inactive) | > 100 µM (inactive)
11 | CC(=O)N1C(CCc2ccccc2)CC(C)(C=O)C1Cc1ccc(O[Si](C(C)C)(C(C)C)C(C)C)cc1 (centres undefined) | 3.03 µM | 4.9 µM (inactive) | 8.11 µM (inactive) | 3.4 µM (inactive) | 3.92 µM (inactive) | 3.21 µM (inactive) | 2.07 µM (inactive) | 4.8 µM (inactive) | 4.79 µM (inactive) | 2.2 µM (inactive) | 8.81 µM (inactive) | 2.86 µM (inactive) | 2.09 µM (inactive) | 5.61 µM (inactive) | 2.55 µM (inactive) | 4.39 µM (inactive) | 1.76 µM (inactive)
12 | Cc1ccc(/N=N/c2ccc(O)c(CN(C)C)c2)cc1C | 17.3 µM | 21.3 µM (inactive) | 15.5 µM (inactive) | 15.1 µM (inactive) | 21.9 µM (inactive) | 33.6 µM (inactive) | 26.5 µM (inactive) | 15.6 µM (inactive) | 16.3 µM (inactive) | 14 µM (inactive) | 16 µM (inactive) | 18.4 µM (inactive) | 27.2 µM (inactive) | 29.5 µM (inactive) | 36.3 µM (inactive) | 37.2 µM (inactive) | 10.1 µM (inactive)
13 | CCCCCCCC(=O)OC[n+]1cccc(-c2c(COC(=O)NC(C)C)c(COC(=O)NC(C)C)c3n2CCC3)c1 | > 100 µM | > 51.2 µM (inactive) | > 63.1 µM (inactive) | > 100 µM (inactive) | > 78 µM (inactive) | > 50.5 µM (inactive) | > 86.1 µM (inactive) | > 100 µM (inactive) | > 100 µM (inactive) | > 93.3 µM (inactive) | > 100 µM (inactive) | > 100 µM (inactive) | 12.8 µM (inactive) | > 83.9 µM (inactive) | 50 µM (inactive) | 82 µM (inactive) | 24.3 µM (inactive)
14 | O=C(N/N=C\c1ccc([N+](=O)[O-])s1)c1ccncc1 | 5.27 µM | 10.3 µM (inactive) | 14.4 µM (inactive) | 3.25 µM (inactive) | 19.4 µM (inactive) | 10.8 µM (inactive) | 5.62 µM (inactive) | 2.82 µM (inactive) | 18.8 µM (inactive) | 21.2 µM (inactive) | 22.8 µM (inactive) | 4.13 µM (inactive) | 5.65 µM (inactive) | 20.7 µM (inactive) | 5.07 µM (inactive) | 14.7 µM (inactive) | 2.38 µM (inactive)
15 | CC1=C(CCC(C)CO)O[C@H]2C[C@H]3[C@@H]4CC[C@H]5C[C@@H](O)CC[C@]5(C)[C@H]4CC(=O)[C@]3(C)[C@@H]12 (some centres undefined) | 17.1 µM | 12.6 µM (inactive) | 9.27 µM (inactive) | 8.18 µM (inactive) | 20.6 µM (inactive) | 35.6 µM (inactive) | 2.4 µM (inactive) | 4.94 µM (inactive) | 18.1 µM (inactive) | 7.03 µM (inactive) | 9.48 µM (inactive) | 13.7 µM (inactive) | 13.4 µM (inactive) | 20.6 µM (inactive) | 17.5 µM (inactive) | 11.7 µM (inactive) | 2.94 µM (inactive)
16 | COc1ccc(-c2nc(O)c3ccccc3n2)cc1 | 43.1 µM | 29.1 µM (inactive) | > 100 µM (inactive) | > 100 µM (inactive) | 40.4 µM (inactive) | > 100 µM (inactive) | > 100 µM (inactive) | > 100 µM (inactive) | 40.8 µM (inactive) | 84.5 µM (inactive) | 27.1 µM (inactive) | > 100 µM (inactive) | 45.4 µM (inactive) | > 100 µM (inactive) | 77.1 µM (inactive) | 32.4 µM (inactive) | > 100 µM (inactive)
17 | Clc1ccc(C(c2ccc(Cl)cc2)N2CCNCC2)cc1 | 2.58 µM | 1.77 µM (inactive) | 1.87 µM (inactive) | 2.02 µM (inactive) | 2.34 µM (inactive) | 2.22 µM (inactive) | 1.83 µM (inactive) | 1.9 µM (inactive) | 2.09 µM (inactive) | 2.04 µM (inactive) | 3.1 µM (inactive) | 2.03 µM (inactive) | 1.75 µM (inactive) | 2.47 µM (inactive) | 1.73 µM (inactive) | 2.07 µM (inactive) | 1.86 µM (inactive)
